In the Kinase Knowledgebase extract (Sharma et al. 2016):

Each compound was assayed against MAPK14 (UniProt Q16539) (assay: Inhibition of MAPK14 Kinase Activity).
Sequence of MAPK14 (Q16539 whole entry, looked up): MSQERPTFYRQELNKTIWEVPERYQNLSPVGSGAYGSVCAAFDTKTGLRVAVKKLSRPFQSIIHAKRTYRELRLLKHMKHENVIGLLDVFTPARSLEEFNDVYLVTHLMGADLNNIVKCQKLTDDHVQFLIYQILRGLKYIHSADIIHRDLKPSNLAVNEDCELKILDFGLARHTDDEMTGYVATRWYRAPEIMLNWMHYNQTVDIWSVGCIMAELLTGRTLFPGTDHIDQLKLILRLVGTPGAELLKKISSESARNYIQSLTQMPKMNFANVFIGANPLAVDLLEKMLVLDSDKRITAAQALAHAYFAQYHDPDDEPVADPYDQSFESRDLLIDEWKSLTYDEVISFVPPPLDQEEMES

Row | IC50 [µM] | SMILES
1 | < 10 | Cc1c(F)cc(C(=O)NC2CC2)cc1-c1ccc(C(=O)NCC(C)(C)C)cc1OCCCc1nnco1
2 | < 10 | Cc1ccc(CNC(=O)c2ccc(-c3cc(C(=O)NC4CC4)cc(F)c3C)c(O)c2)cc1
3 | < 10 | Cc1c(F)cc(C(=O)NC2CC2)cc1-c1ccc(C(=O)NCC(C)(C)C)cc1OCCN1CCOCC1
4 | < 10 | CCN(CC)CCCOc1cc(C(=O)NCC(C)(C)C)ccc1-c1cc(C(=O)NC2CC2)ccc1C
5 | < 10 | COCOc1cc(C(=O)NCC(C)(C)C)ccc1-c1cc(C(=O)NC2CC2)cc(F)c1C
6 | < 10 | Cc1c(F)cc(C(=O)NC2CC2)cc1-c1ccc(C(=O)NCC(C)(C)C)cc1CO
7 | < 10 | Cc1ccc(C(=O)NC2CC2)cc1-c1ccc(C(=O)NCC(C)(C)C)cc1OCCCN1CCOCC1
8 | < 10 | Cc1c(F)cc(C(=O)NC2CC2)cc1-c1ccc(C(=O)NCC(C)(C)C)cc1OCCCC(=O)N1CCCC1
9 | < 10 | Cc1c(F)cc(C(=O)NC2CC2)cc1-c1ccc(C(=O)NCC(C)(C)C)cc1OCCCCO
10 | < 10 | Cc1c(F)cc(C(=O)NC2CC2)cc1-c1ccc(C(=O)NCC2CC2)cc1O
11 | < 10 | COCOc1cc(C(=O)NCc2ccc(OC)cc2)ccc1-c1cc(C(=O)NC2CC2)cc(F)c1C
12 | < 10 | CNC(=O)CCCOc1cc(C(=O)NCC(C)(C)C)ccc1-c1cc(C(=O)NC2CC2)cc(F)c1C
13 | < 10 | COCOc1cc(C(=O)NCC(C)C)ccc1-c1cc(C(=O)NC2CC2)cc(F)c1C
14 | < 10 | CCCOc1cc(C(=O)NCC(C)(C)C)ccc1-c1cc(C(=O)NC2CC2)cc(F)c1C
15 | < 10 | CCNC(=O)CCCOc1cc(C(=O)NCC(C)(C)C)ccc1-c1cc(C(=O)NC2CC2)cc(F)c1C
16 | < 10 | COc1cc(C(=O)NCC(C)(C)C)ccc1-c1cc(C(=O)NC2CC2)cc(F)c1C
17 | < 10 | CC(=O)Nc1cc(C(=O)NCC(C)(C)C)ccc1-c1cc(C(=O)NC2CC2)ccc1C
18 | < 10 | Cc1c(F)cc(C(=O)NC2CC2)cc1-c1ccc(C(=O)NCC(C)C)cc1O
19 | < 10 | Cc1c(F)cc(C(=O)NC2CC2)cc1-c1ccc(C(=O)NCC(C)(C)C)cc1CNCC(C)(C)C
20 | < 10 | Cc1ccc(C(=O)NC2CC2)cc1-c1ccc(C(=O)NCC(C)(C)C)cc1OCCCN(C)C(C)C
21 | < 10 | CCNC(=O)Nc1cc(C(=O)NCC(C)(C)C)ccc1-c1cc(C(=O)NC2CC2)ccc1C
22 | < 10 | Cc1c(F)cc(C(=O)NC2CC2)cc1-c1ccc(C(=O)NCC(C)(C)C)cc1OCC(=O)N1CCOCC1
23 | < 10 | COc1ccc(CNC(=O)c2ccc(-c3cc(C(=O)NC4CC4)cc(F)c3C)c(O)c2)cc1
24 | < 10 | COCOc1cc(C(=O)NCC2CC2)ccc1-c1cc(C(=O)NC2CC2)cc(F)c1C

Row | IC50 [µM] | SMILES
25 | < 10 | Cc1ccc(C(=O)NC2CC2)cc1-c1ccc(C(=O)NCC(C)(C)C)cc1OCC(O)CO (stereo not drawn)
26 | < 10 | Cc1c(F)cc(C(=O)NC2CC2)cc1-c1ccc(C(=O)NCC(C)(C)C)cc1OCCNS(C)(=O)=O
27 | < 10 | Cc1ccc(C(=O)NC2CC2)cc1-c1ccc(C(=O)NCC(C)(C)C)cc1OCCCNCCO
28 | < 10 | Cc1c(F)cc(C(=O)NC2CC2)cc1-c1ccc(C(=O)NCC(C)(C)C)cc1OCCCC(N)=O
29 | < 10 | Cc1c(F)cc(C(=O)NC2CC2)cc1-c1ccc(C(=O)NCC2CC2)cc1OCCN(C)C
30 | < 10 | COCOc1cc(C(=O)N[C@H](C)C(C)C)ccc1-c1cc(C(=O)NC2CC2)cc(F)c1C
31 | < 10 | Cc1c(F)cc(C(=O)NC2CC2)cc1-c1ccc(C(=O)NCC(C)(C)C)cc1OCCCN(C)C
32 | < 10 | Cc1ccc(C(=O)NC2CC2)cc1-c1ccc(C(=O)NCC(C)(C)C)cc1OCCCN1CCCC1
33 | < 10 | Cc1c(F)cc(C(=O)NC2CC2)cc1-c1ccc(C(=O)NCC(C)(C)C)cc1OCCCC(=O)N1CCOCC1
34 | < 10 | Cc1c(F)cc(C(=O)NC2CC2)cc1-c1ccc(C(=O)NCC(C)(C)C)cc1OCCCC(=O)N(C)C
35 | < 10 | COc1cc(C(=O)NCC(C)C)ccc1-c1cc(C(=O)NC2CC2)cc(F)c1C
36 | < 10 | COCOc1cc(C(=O)N[C@H](C)C(C)(C)C)ccc1-c1cc(C(=O)NC2CC2)cc(F)c1C
37 | < 10 | CCC(=O)Nc1cc(C(=O)NCC(C)(C)C)ccc1-c1cc(C(=O)NC2CC2)ccc1C
38 | < 10 | Cc1ccc(C(=O)NC2CC2)cc1-c1ccc(C(=O)NCC(C)(C)C)cc1N
39 | < 10 | Cc1ccc(C(=O)NC2CC2)cc1-c1ccc(C(=O)NCC(C)(C)C)cc1NS(C)(=O)=O
40 | < 10 | COc1ccc(CNC(=O)c2ccc(-c3cc(C(=O)NC4CC4)cc(F)c3C)c(OC)c2)cc1
41 | < 10 | Cc1c(F)cc(C(=O)NC2CC2)cc1-c1ccc(C(=O)N[C@H](C)C(C)C)cc1O
42 | < 10 | COc1cc(C(=O)N[C@H](C)C(C)C)ccc1-c1cc(C(=O)NC2CC2)cc(F)c1C
43 | < 10 | COc1cc(C(=O)N[C@H](C)C(C)(C)C)ccc1-c1cc(C(=O)NC2CC2)cc(F)c1C
44 | < 10 | COc1cc(C(=O)NCC2CC2)ccc1-c1cc(C(=O)NC2CC2)cc(F)c1C
45 | < 10 | Cc1c(F)cc(C(=O)NC2CC2)cc1-c1ccc(C(=O)N[C@H](C)C(C)(C)C)cc1O
46 | < 10 | Cc1c(F)cc(C(=O)NC2CC2)cc1-c1ccc(C(=O)NCC(C)(C)C)cc1OCCCC(=O)O
47 | < 10 | Cc1ccc(C(=O)NC2CC2)cc1-c1ccc(C(=O)NCC(C)(C)C)cc1OCCCNC(C)C
48 | < 10 | Cc1c(F)cc(C(=O)NC2CC2)cc1-c1ccc(C(=O)NCC(C)(C)C)cc1O
